This note sets out measurements from patent US11833256B2, “Selective RARγ ligand-loaded nanoparticles for manipulation of targeted bone growth” (University Of Maryland, Baltimore, priority 2017, dated 2023).

In assay [1] the test system is ectopic endochondral bone formation in BMP-Matrigel. Kind of assay: Ectopic bone formation model (rhBMP-2-containing Matrigel injected subcutaneously). Particulars: for biological activities in an ectopic bone formation model: mouse, in vivo; for ectopic bone formation (μCT, BV/TV): oral gavage on day 3, 5 and 7, ectopic masses collected day 12, vs vehicle. Format: in vivo, mouse. The protocol:
Ectopic bone formation was induced in mice according to known methods. See Shimono et al., J. Orthop. Res. 28(2):271-277, 2010. Briefly, recombinant human bone morphogenetic protein-2 (rhBMP-2; Gene Script™ Corp., Piscataway, NJ) was added to growth-factor reduced Matrigel™ (BD Bioscience™, Inc., Franklin Lakes, NJ) on ice to a final concentration of 4 µg/mL. Two hundred fifty 250 μL, rhBMP-2-containing Matrigel™ was injected into the left and right subcutaneous abdominal region of 2-month-old CD-1 female mice. Ectopic tissue samples were harvested and subjected to μCT and histological analyses.
After fixation, samples were subjected to μCT analysis using a CT35 scanner (SCANCO USA™ Inc., Southeastern, PA) at 55 kV and […] for bone volume/tissue volume (BV/TV) analysis. Normalized BV/TV means were calculated by ratios of experimental versus control values.
To further evaluate the roles of RARγ and the efficacy of RARγ antagonists on bone formation, the effects of three selective RARγ antagonists were compared with the RARγ agonist, NRX204647, using a mouse ectopic bone model. Recombinant human BMP-2 containing Matrigel™ (BMPMatrigel) was transplanted subcutaneously in the abdomens of CD-1 female mice (ectopic bone formation model). The injected BMP-Matrigel™ mixture rapidly solidified and developed endochondral bone within 10 to 12 days (see FIG. 13B).
The BMP-Matrigel™ injected mice were randomly subdivided into groups and subjected to oral gavage with vehicle corn oil, RARγ agonist or each of the 3 antagonists on day 3, 5 and 7 (see structures in FIG. 13A). The control mouse with vehicle treatment had inductive masses in the Matrigel™-injected sites (see FIG. 13B). Ectopic tissue masses were collected on day 12 and subjected to X-ray and μCT analyses. Micro-CT images of pellets harvested 12 days after implantation were taken. FIG. 13C.
Mice with Matrigel™ Pellets as described above were administered vehicle or 4 mg/kg CD2665 on day 3, 5 and 7 after BMP2-Matrigel™ transplantation by gavage, and then analyzed on Day 7 or Day 12. FIG. 14A. Separately, a second group of mice were administered vehicle or 4 mg/kg CD2665 on day 7, 9 and 11 after BMP2-Matrigel transplantation and analyzed either on day 12 or 17. Pellets were collected at the indicated time, fixed and subjected to μCT analysis (bottom row). Pellets were then sectioned and stained with Alcian blue for quantitation of cartilage (top row).
Samples were first subjected to μCT analysis and were then sectioned and stained with Alcian blue for quantification of cartilage. For each group, 3 sections each (1 mm interval of 4 independent samples) were analyzed. […] For the experiments shown in FIG. 15A, mice were administered vehicle or 4 mg/kg of CD2665 by gavage on day 3, 5 and 7 from BMP-Matrigel™ implantation and samples were collected on day 7 or 12.
To examine these later stages more closely, mice implanted with BMP-Matrigel™ were treated with a RARγ antagonist on day 7, 9 and 11, and the ectopic tissue masses were analyzed on day 12 or 17 (FIG. 15B). […] The findings reaffirm that RARγ antagonists enhance cartilage formation during the middle stages of endochondral ossification and eventually lead to increases in bone formation. For experiments in FIG. 15B, mice were administered vehicle or 4 mg/kg CD2665 by gavage on day 7, 9 and 11 from implantation and analyzed on day 12 or 17. […]
Subcutaneous transplantation of rhBMP-2 containing Matrigel™ (BMP-Matrigel™) pellets in the abdomens of 2-month-old CD-1 female mice was performed. On day 3 and 10, 5 μl of empty NP or 7c-loaded NP (7c-NP: 3.5 μg in 5 μl) were injected around the Matrigel™ pellets. Ectopic bone tissue was corrected on day 15 and subjected to μCT analysis.

For assay [2], the system named is BMP signaling (phosphorylated Smad1/5, p38, Erk1/2). As to the kind of experiment: Immunoblotting of phosphorylated Smad1/5, p38 and Erk1/2 in ATDC5 cells / primary chondrocytes. It is filed as cell-based, mouse. Particulars: in the presence of 10 ng/mL rhBMP-2; each dose tested. The protocol:
ATDC5 cells were grown until approximately 70% confluence in Dulbecco's modified Eagle's medium/Ham's nutrient mixture F-12 containing 5% fetal bovine serum (FBS). After serum deprivation (0.3% FBS) for 16 hours, cultures were treated with rhBMP-2 and/or retinoids for 60 minutes and then lysed in SDS-PAGE sample buffer. Cell lysates were denatured, separated onto 10% SDS-page gels and transferred to PVDF membranes (Millipore™, USA). Membranes were incubated overnight at 4° C. with antibodies against phospho-Smad1/5 (Cell Signaling Technology™, 9516, 1:1000), phospho-Smad1/5/8 (Cell Signaling Technology™, 9511, 1:1000), phospho-Erk1/2 (Cell Signaling Technology™, 4370, 1:500), or phospho-p38 (Cell Signaling Technology™, 4511, 1:500), followed by incubation with horseradish peroxidase (HRP)-conjugated secondary antibody (Cell Signaling Technology™, 7074, 1:2000). HRP activity was detected using a SuperSignal™ West Dura Extended Duration Substrate (Thermo Scientific™, USA). Membranes were re-blotted with antibodies against GAPDH (Santa Cruz Biotechnology™, sc-32233, 1:1000) for loading normalization.
RARγ was examined for whether it has cell-autonomous roles on BMP signaling in chondrocytes. […] Levels of phosphorylated Smad1/5, p38 and Erk1/2 were analyzed by immunoblotting. […]

Setting [3] is: 4 mg/kg gavage day 3, 5, 7, analysed day 12.
Where [4] appears, read: 4 mg/kg gavage day 7, 9, 11, analysed day 12.

Molecules are shown by their SMILES.

Regarding `COCCOCOc1cc2ccc(-c3ccc(C(=O)O)cc3)cc2cc1C12CC3CC(CC(C3)C1)C2` [CD2665], the “amount of cartilage in ectopic masses (Alcian blue)” value in assay [1] (4 mg/kg gavage day 3, 5, 7, analysed day 7) is listed as “significantly higher amount of cartilage than controls”. For the same compound, in assay [1] (setting [3]), the “area of cartilage in ectopic masses (Alcian blue)” value is given as “still more abundant in treated than control samples” and the “mineralized tissue volume vs control (μCT)” value is on record as “about 2 fold”. For the same compound, in assay [1] (setting [4]), the “amount of mineralized tissue vs control” value was “not significant” and the “cartilaginous tissue in ectopic masses” value was “more cartilaginous tissue”. In assay [1] (4 mg/kg gavage day 7, 9, 11, analysed day 17), the “volume of bone vs control” value was “significantly larger volume of bone than controls”. In assay [1], the “biological activities in an ectopic bone formation model” value is given as “proven biological activities” and the “ectopic bone formation (μCT, BV/TV)” value was “significantly increased the amount of detectable bone”. For the same compound, the “pSmad1/5/8 levels (immunoblot)” value in assay [2] is given as “significantly enhanced”.

As for `CC1(C)CCC(C)(C)c2cc(C3(c4ccc5cc(C(=O)O)ccc5c4)SCCS3)ccc21` [MM11253], in assay [1], the “biological activities in an ectopic bone formation model” value is “proven biological activities” and the “ectopic bone formation (μCT, BV/TV)” value is “significantly increased the amount of detectable bone”. Besides, in assay [2], the “pSmad1/5/8 levels (immunoblot)” value is listed as “significantly enhanced”.
